Drawing on ChEMBL document CHEMBL1122534, “Synthesis of 4-substituted 2H-naphth[1,2-b]-1,4-oxazines, a new class of dopamine agonists” (J Med Chem, 1984), this text covers ED50 for two molecules.

The target of this assay is Dopamine receptor (Rattus norvegicus) (UniProt P25115+P19020+P30729+P18901+P61169). Nature of the assay: ED50 for induction of contralateral turning behavior in 6-hydroxydopamine (6-OHDA) lesioned rats by ip administration. It is filed as functional, organism-based.

Take `c1ccc2c(c1)CC[C@H]1NCCOC21` (some centres not stated): it took a dose of 30 mg/kg to reach the 50% effect level (ED50).
`CCN1CCOC2c3ccccc3CC[C@H]21` (some centres not stated) returned an ED50 of 1.7 mg/kg.

For orientation: ED50 means the dose at which the effect has come halfway, by size or by number of responders.
